Entries after “also recorded” stand apart in the source; their conditions may differ.
Test system: SARS-CoV-2 B.1.617.2 and BA.1 variants
Type: cell-based
Settings: B.1.617.2 (Delta) and BA.1 (Omicron)

SMILES: CSc1ccc(-n2cnc3ccc(-c4nnc(CCc5cccc(C#N)c5)o4)cc32)cc1 [Compound P-0717632]
- effect on SARS-CoV-2 variants: reduced intracellular viral titres; also recorded: inhibited

Source: patent publication US20250042887A1, “GLYCOGEN SYNTHASE KINASE-3 (GSK3) INHIBITOR COMPOUNDS FOR USE AS ANTIVIRAL AGENTS” (priority 2021, published 2025)
